Results on 9 compounds are retold here after PMC6366974, “The curcumin analog EF24 is a novel senolytic agent” (Aging (Albany NY), 2019).

Series [1] relates to WI-38 non-senescent cells (NCs). As to the kind of experiment: Cell viability assay (flow cytometry, PI). The note with it: Homo sapiens; WI-38 NCs, 72 h, Table 1 screen of curcumin analogs. Type of series: cell-based, human. How it is done: (§1) Human WI-38 fibroblasts (WI-38, Cat. No. CCL-75), human IMR-90 fibroblasts (IMR-90, Cat. No. CCL-186), human umbilical vein endothelial cells (HUVEC, Cat. No. CRL-1730), human renal epithelial cells (HREC, Cat. No. PCS-400-012) and human pre-adipocytes (Cat. No. PCS-210-010) were newly purchased from the American Type Culture Collection (ATCC, Manassas, VA, USA). WI-38 and IMR-90 cells were cultured in complete Dulbecco’s modified Eagle medium (DMEM, Cat. No. 12430054, Thermo Fisher Scientific, Waltham, MA, USA) supplemented with 10% heat-inactivated fetal bovine serum (FBS, Cat. No. S11150H, Atlanta Biologicals, Flowery Branch, GA, USA), 100 U/mL penicillin and 100 µg/mL streptomycin (Pen Strep, Cat. No. 15140122, Thermo Fisher Scientific, Waltham, MA, USA) in a humidified incubator at 37°C and 5% CO2. HUVEC were cultured in EGM-2 BulletKit (Cat. No. CC-3162, Lonza, Basel, Switzerland) containing basal medium supplemented with growth factors, cytokines and other supplements according to the manufacturer’s protocol. HREC were cultured in renal epithelial cell basal medium (Cat. No. PCS-400-030, ATCC, Manassas, VA, USA) supplemented with renal epithelial cell growth kit (Cat. No. PCS400040, ATCC, Manassas, VA, USA). Human pre-adipocytes were cultured in fibroblast basal medium (Cat. No. PCS-201-030, ATCC, Manassas, VA, USA) supplemented with fibroblast growth kit-low serum (Cat. No. PCS201041, ATCC, Manassas, VA, USA). EF24 (Cat. No. E8409) and HO-3867 (Cat. No. S7501) were purchased from Sigma-Aldrich (St. Louis, MO, USA) and Selleckchem (Houston, TX, USA), respectively. DIMC (Cat. No. 10009986) and 2-HBA (Cat. No. 11879) were both purchased from Cayman Chemical (Ann Arbor, MI, USA).
(§2) Three different methods were used for the induction of SCs, including replicative exhaustion, ionizing radiation and ectopic Ras expression as previously described. Briefly, low-passage WI-38 cells (< 25 passages), IMR-90 cells (< 25 passages), HUVEC (< 10 passages), HREC (< 10 passages) and pre-adipocytes (< 4 passages) were used as NCs or for the induction of senescence. To induce replicative senescence (Rep-SCs), WI-38 and IMR-90 fibroblasts, HUVEC, HREC and pre-adipocytes were subcultured until they stopped to divide and became permanently growth arrested senescence after 38 passages (WI-38), 38 passages (IMR-90), 22 passages (HUVEC), 30 passages (HREC) and 10 passages (pre-adipocytes), respectively. To induce SCs by ionizing radiation (IR-SCs) and ectopic expression of Ras (Ras-SCs), WI-38 NCs were treated as previously described.
(§3) Number of viable cells were quantified using flow cytometry as previously described with slight modifications. Specifically, NCs and SCs were incubated with vehicle (0.1% DMSO) or a test compound at indicated concentrations for 72 h. Following dissociation with 0.25% Trypsin-EDTA (Cat. No. 25200056, Thermo Fisher Scientific, Waltham, MA, USA) at 37°C for 5 min, the cells were harvested in 100 µl pre-cooled phosphate buffered saline (PBS, Cat. No. 20012027, Thermo Fisher Scientific, Waltham, MA, USA) containing 2% FBS and 100 ng/mL propidium iodide (PI, P4170, Sigma-Aldrich, St. Louis, MO, USA) and analyzed using flow cytometry (LSR II, BD Biosciences, San Jose, CA, USA). Percentage of viable cells were determined by counting the number of PI negative cells (viable cells) and then calculated as a ratio of control cells treated with vehicle. In addition, dose-response curves were generated for each compound, and the concentration for 50% of maximal effect (EC50 values) was calculated using GraphPad Prism 6.

Series [2] relates to WI-38 IR-induced senescent cells (IR-SCs). As to the kind of experiment: Cell viability assay (flow cytometry, PI). Type of series: cell-based, human. The note with it: for EC50: Homo sapiens, WI-38 IR-SCs, 72 h, Table 1 screen of curcumin analogs; for selective toxicity against IR-SCs versus NCs (viability): WI-38, 72 h. How it is done: as §1, §2, §3
(A flow cytometer gives signals particle by particle.)

Details of series [3]: method as in PMID 20211249. Conditions: cited from earlier work.
In a further series the test system is platelets. The arrangement: method as in PMID 22496272. The note with it: cited from earlier work.
In series [4] the test system is WI-38 IR-SCs. As to the kind of experiment: Combination treatment cell viability and coefficient of drug interaction (CDI). The class given is cell-based, human. The note with it: 72 h. How it is done: as §3
The data were analyzed by analysis of variance (ANOVA) with GraphPad Prism 6 (GraphPad Software, La Jolla, CA, USA). […] To detect the synergistic senolytic activities of EF24 and ABT263, CDI was calculated as previously described.

The test system of series [5] is Bcl-2 family proteins (Bcl-xl, Mcl-1, Bcl-2). Put plainly: Proteasome inhibition experiment (MG132 pretreatment, western blots). The note with it: 1 µM MG132 1 h prior to EF24 for 72 h. Type of series: cell-based, human. As for the experimental part: After treatment with vehicle or EF24 at 0.5, 1 and 2 µM for 72 h, WI-38 NCs or IR-SCs were harvested in 1.5mL microcentrifuge tubes, and lysed in RIPA buffer with EDTA and EGTA (Cat. No. BP-115DG, Boston BioProducts, Ashland, MA, USA) supplemented with 1% protease inhibitor cocktail (Cat. No. P8340, Sigma-Aldrich, St. Louis, MO, USA) and 1% phosphatase inhibitor cocktail (Cat. No. P0044, Sigma-Aldrich, St. Louis, MO, USA). An equal amount of protein (30 µg/lane) from each cell extract was resolved on a precast gel (Mini-PROTEAN TGX™, Cat. No. 456-1094, Bio-Rad, Hercules, CA, USA). Proteins were blotted to a precut 0.2 µm PVDF membrane (Invitrolon™, Cat. No. LC2002, Life Technologies, Carlsbad, CA, USA) by electrophoresis. The membranes were blocked with 1X TBS-Tween (TBST, Cat. No. J77500, Affymetrix, Santan Clara, CA, USA) containing 5% non-fat dry milk (Cat. No. sc-2324, Santa Cruz Biotechnology, Dallas, TX, USA), and subsequently probed with primary antibodies at a predetermined optimal concentration overnight at 4°C. The primary antibodies including Bcl-xl (Cat. No. 2762), Mcl-1 (Cat. No. 5453), and Bcl-2 (Cat. No. 2872) and β-actin (Cat. No. 4970) were purchased from Cell Signaling Technology (Danvers, MA, USA). […] The blotting membranes were recorded using autoradiography (SRX-101, Konica, Shinjuku, Tokyo, Japan). […]
Background: A western blot detects proteins with antibodies after separation by electrophoresis.

The test system of series [6] is WI-38 IR-SCs. Put plainly: Apoptosis analysis (Annexin-V/PI flow cytometry). Type of series: cell-based, human. Conditions: 10 µM QVD 4 h prior to 2 µM EF24 for 72 h. How it is done:
WI-38 NCs and SCs were treated with vehicle or 10 µM Q-VD-OPh (QVD, Cat. No. S7311, Selleckchem, Houston, TX, USA) for 4 h prior to the addition of vehicle or 2 µM EF24 for 72 h. The suspending cells were first harvested from the culture and then pooled with the adherent cells detached by 0.25% Trypsin-EDTA at 37°C for 5 min in 12 × 75 mm polystyrene round-bottom tubes (Cat. No. 352058, Falcon, Corning, NY, USA) containing complete DMEM medium. The cells were stained with Alexa Fluor 647-Annexin V (1: 50, Cat. No. 640912, BioLegend, San Diego, CA, USA) and PI (10 µg/mL, Cat. No. 421301, BioLegend, San Diego, CA, USA) at room temperature for 30 min. The stained cells were analyzed using a BD LSR II flow cytometer.

The test system of series [7] is senescent human preadipocytes. The arrangement: method as in PMID 28273655. The note with it: cited from earlier work.

Residues, ends and D or L forms follow the SMILES beside them. *: point of attachment. Cbz = O=C(OCc1ccccc1)*

In the case of `COc1ccc(/C=C/C(=O)CC(=O)/C=C/c2ccc(OC)c(OC)c2)cc1OC` [DIMC, dimethoxycurcumin], in series [1], the EC50 (as a rule, the concentration that produces a half-maximal response) was determined as 23.8 µM. In series [2], the EC50 was determined as 15.2 µM and the “selective toxicity against IR-SCs versus NCs (viability)” value (“selective toxicity” for short) is “minimal selective toxicity”.

`COC1=C2C[C@@H](C)C[C@H](OC)[C@H](O)[C@@H](C)/C=C(\C)[C@H](OC(N)=O)[C@@H](OC)/C=C\C=C(/C)C(=O)NC(=CC1=O)C2=O` [geldanamycin]: the hepatotoxicity entry in series [3] was “unacceptable hepatotoxicity”.

As to `CC1(C)CCC(c2ccc(Cl)cc2)=C(CN2CCN(c3ccc(C(=O)NS(=O)(=O)c4ccc(N[C@H](CCN5CCOCC5)CSc5ccccc5)c(S(=O)(=O)C(F)(F)F)c4)cc3)CC2)C1` [ABT263], in the series on platelets, the “on-target toxicity to platelets” value is given as “dose-limiting thrombocytopenia”. Moreover, the “cell viability of IR-SCs, agent alone” value in the series with WI-38 IR-SCs [4] is “dose-dependently reduce”.

In the case of `CC(C)C[C@@H](C=O)NC(=O)[C@H](CC(C)C)NC(=O)[C@H](CC(C)C)NC(=O)OCc1ccccc1` [MG132] (Cbz-Leu-Leu-Leu-aldehyde), the “effect of MG132 pretreatment on downregulation of Bcl-2 family proteins by EF24 in SCs” value in series [5] (WI-38 IR-SCs) is “abrogated”. The “effect of MG132 pretreatment on expression of Bcl-2 family proteins in NCs” value in series [5] (WI-38 NCs) is on record as “no significant effect”.

On to `O=C(C=Cc1ccccc1O)C=Cc1ccccc1O` [2-HBA, Bis(2-hydroxybenzylidene)acetone], for which the 50% effective concentration (EC50) in series [1] is 9.5 µM; in series [2], 3.85 µM. Moreover, the “selective toxicity” value in series [2] is “lesser toxicities to NCs”.

As for `CC(C)[C@H](NC(=O)c1ccc2ccccc2n1)C(=O)N[C@@H](CC(=O)O)C(=O)COc1c(F)cccc1F` [QVD], in the series on WI-38 IR-SCs [6], the “effect of QVD pretreatment on EF24 induction of SCs apoptosis” value is given as “completely blocked”.

In the case of `O=c1c(O)c(-c2ccc(O)c(O)c2)oc2cc(O)ccc12` [fisetin], the “senolytic activity against senescent human preadipocytes” value in series [7] is “lacks senolytic activity”.

As to `C=CCNC1=C2C[C@@H](C)C[C@H](OC)[C@H](O)[C@@H](C)/C=C(\C)[C@H](OC(N)=O)[C@@H](OC)/C=C\C=C(/C)C(=O)NC(=CC1=O)C2=O` [17-AAG], in series [3], the hepatotoxicity entry is “unacceptable hepatotoxicity”.

With `CC1(C)C=C(CN2C/C(=C\c3ccc(F)cc3)C(=O)/C(=C/c3ccc(F)cc3)C2)C(C)(C)N1O` [HO-3867], in series [1], the EC50 turned out to be 8.3 µM. In series [2], the EC50 worked out at 3.85 µM and the “selective toxicity” value is given as “lesser toxicities to NCs”.
